Here are results for eleven molecules from US5616684A, “Cyclic peptides and use thereof” (priority 1991, dated 1997).

Non-standard residues stand in square brackets, D forms with d. Residues, ends and D or L forms follow the SMILES beside them. *: point of attachment. d(aIle) = CC[C@H](C)[C@@H](N)C(=O)O; d2Thi = N[C@H](Cc1cccs1)C(=O)O; dPhg = N[C@@H](C(=O)O)c1ccccc1; Bn = c1ccc(C*)cc1

Data set [1] has as its target T1, endothelin receptor A (ETA) (Sus scrofa, UniProt Q29010).
T1 construct: A membrane fraction prepared from the porcine heart; from tissue; host or cells: porcine heart membrane fraction
T1 sequence (Q29010 21-427): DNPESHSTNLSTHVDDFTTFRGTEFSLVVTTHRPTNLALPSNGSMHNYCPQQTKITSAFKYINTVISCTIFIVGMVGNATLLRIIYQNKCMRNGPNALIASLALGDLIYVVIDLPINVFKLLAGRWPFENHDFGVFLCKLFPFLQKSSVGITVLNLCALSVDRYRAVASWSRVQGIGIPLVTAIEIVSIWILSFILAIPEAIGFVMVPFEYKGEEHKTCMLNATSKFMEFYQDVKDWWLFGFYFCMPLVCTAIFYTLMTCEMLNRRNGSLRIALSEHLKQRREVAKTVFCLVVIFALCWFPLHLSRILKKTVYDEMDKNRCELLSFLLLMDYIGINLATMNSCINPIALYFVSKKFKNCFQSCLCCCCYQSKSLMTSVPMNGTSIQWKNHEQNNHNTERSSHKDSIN
As to the kind of experiment: Assay of Affinity for Receptor (1): Binding Activity on ETA Receptor. On the set-up: key to Binding Activity on ET Receptor (R. act.) ETA: relative binding activity; reference cyclic pentapeptide = 1.0. The note with it: specific activity, binding activity of cyclo[-D-Glu-Ala-D-aIle-Leu-D-Trp-] taken as 1.0; porcine heart membrane fraction, 125I-labeled endothelin-1, 25° C., 1 hour. Put shortly: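 Porcine heart membranes (0.15 mg/ml) incubated with 125I-endothelin-1 and test peptide for 1 h at 25 °C, then diluted with ice-cold buffer and pelleted at 12,000×g; bound radioactivity gamma-counted. Values expressed as specific activity relative to cyclo[-D-Glu-Ala-D-aIle-Leu-D-Trp-] set at 1.0.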

Data set [2] addresses T2, endothelin receptor B (ETB) (Bos taurus, UniProt P28088).
T2 construct: A membrane fraction prepared from the bovine brain; from tissue; host or cells: bovine brain membrane fraction
T2 sequence (P28088 27-441): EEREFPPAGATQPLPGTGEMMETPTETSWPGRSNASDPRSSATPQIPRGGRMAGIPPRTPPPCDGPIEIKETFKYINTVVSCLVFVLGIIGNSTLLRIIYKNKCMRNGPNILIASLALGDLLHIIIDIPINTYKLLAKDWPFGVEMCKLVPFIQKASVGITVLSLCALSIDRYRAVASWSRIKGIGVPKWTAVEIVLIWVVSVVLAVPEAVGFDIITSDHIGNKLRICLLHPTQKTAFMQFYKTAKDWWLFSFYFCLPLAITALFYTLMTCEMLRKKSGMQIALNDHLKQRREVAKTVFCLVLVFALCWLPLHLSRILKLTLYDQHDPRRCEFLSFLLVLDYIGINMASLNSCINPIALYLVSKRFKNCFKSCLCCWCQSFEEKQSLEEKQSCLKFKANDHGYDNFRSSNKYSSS
Briefly: Assay of Affinity for Receptor (2): Binding Activity on ETB Receptor *1. On the set-up: key: relative specific activity, Example 8 compound = 100. Conditions: specific activity, binding activity of the compound of Example 8 taken as 100; bovine brain membrane fraction, 125I labeled endothelin-1, 25° C., 1 hour. As to the method: Assay of Affinity for Receptor (2) . . . Binding Activity on ETB Receptor *1
A membrane fraction prepared from the bovine brain was diluted to 0.15 mg/ml by using a buffer solution for assay, and 100 μl of the resulting suspension of the membrane fraction was poured into each assay tube to use for assay. To this suspension of the membrane fraction was added 2 μl of 5 nM ^125 I labeled endothelin-1 solution. Further, 3 μl of a test peptide solution was added thereto, followed by incubation at a temperature of 25° C. for 1 hour. Then, the resulting suspension was diluted with 900 μl of the buffer solution for assay cooled with ice, and thereafter separated into a supernatant and a precipitate by centrifugation at 12,000×g for 10 minutes. Cell membranes and an endothelin receptor B (ETB) embedded therein were contained in the precipitate, and radioactive iodine-labeled endothelin bound to the receptor was also recovered in the precipitate. Accordingly, the amount of radioactive iodine-labeled endothelin bound to the endothelin receptor B (ETB) was determined by measuring the amount of radioactive iodine contained in the precipitate with a gamma-ray counter. The numerical value of ETB shown in Table 1 is the value of specific activity, taking the binding activity of the compound of Example 8 on the receptor B as 100.

The subject of data set [3] is ETB receptor (guinea pig kidney crude receptor membrane fraction). As to the kind of experiment: ETB Radio Receptor Assay *2. The note with it: relative activity (Example 8 given as 100), 125I-endothelin-1, 37° C., 90 minutes. It counts as binding. The essentials: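 Crude membranes from guinea pig kidney (2.1 μg protein) incubated with 740 Bq ^125I-endothelin-1 and test sample, 90 min at 37 °C, in 50 mM Tris-HCl pH 7.4 with 0.1 mM PMSF, 1 mM EDTA, 0.2% BSA. Bound ligand separated by fast filtration and counted by gamma counter.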

For data set [4] the following is noted: amide bond; 18-membered ring; HONB ester (HONB/DCC)/TEA; DMF; 5.0 mM; 4 steps.

`CC(C)C[C@@H]1NC(=O)[C@@H](CC(C)C)NC(=O)[C@@H]2CCCN2C(=O)[C@H](Cc2c[nH]c3ccccc23)NC(=O)[C@@H](CC(=O)O)NC(=O)[C@@H](Cc2c[nH]c3ccccc23)NC1=O` [Example 36, Cyclo[--D--Asp--Trp--Pro--D--Leu--Leu--D--Trp--]] (cyclo(L[dW][dD]WP[dL])): in data set [1], the “Binding Activity on ET Receptor (R. act.) ETA” value is listed as 17. Further, the “Binding Activity on ET Receptor (R. act.) ET8 *1” value in data set [2] came to 40. In data set [3], the “Binding Activity on ET Receptor (R. act.) ET8 *2” value came out at 42.
As to `CC(C)C[C@@H]1NC(=O)[C@@H](CC(C)C)NC(=O)[C@H](CO)NC(=O)[C@H](Cc2c[nH]c3ccccc23)NC(=O)[C@@H](CC(=O)O)NC(=O)[C@@H](Cc2c[nH]c3ccccc23)NC1=O` [Example 37, Cyclo[--D--Asp--Trp--Ser--D--Leu--Leu--D--Trp--]] (cyclo(L[dW][dD]WS[dL])), in data set [1], the “Binding Activity on ET Receptor (R. act.) ETA” value was determined as 24. Besides, the “Binding Activity on ET Receptor (R. act.) ET8 *1” value in data set [2] was determined as 22. In addition, the “Binding Activity on ET Receptor (R. act.) ET8 *2” value in data set [3] worked out at 18.
Take `CC(C)C[C@@H]1NC(=O)[C@@H](CC(C)C)NC(=O)[C@H](COCc2ccccc2)NC(=O)[C@H](Cc2c[nH]c3ccccc23)NC(=O)[C@@H](CC(=O)O)NC(=O)[C@@H](Cc2c[nH]c3ccccc23)NC1=O` [Example 38, Cyclo[--D--Asp--Trp--Ser(Bzl)--D--Leu--Leu--D--Trp--]] (cyclo(L[dW][dD]WS(Bn)[dL])): the “Binding Activity on ET Receptor (R. act.) ETA” value in data set [1] is 13. Also, the “Binding Activity on ET Receptor (R. act.) ET8 *1” value in data set [2] amounted to 66. Moreover, the “Binding Activity on ET Receptor (R. act.) ET8 *2” value in data set [3] worked out at 170.
For the molecule `CC(C)C[C@@H]1NC(=O)[C@@H](c2ccccc2)NC(=O)[C@H](CC(=O)O)NC(=O)[C@H](Cc2c[nH]c3ccccc23)NC(=O)[C@@H](CC(=O)O)NC(=O)[C@@H](Cc2c[nH]c3ccccc23)NC1=O` [Example 45, Cyclo[--D--Asp--Trp--Asp--D--Phg--Leu--D--Trp--]] (cyclo(D[dPhg]L[dW][dD]W)), the “Binding Activity on ET Receptor (R. act.) ETA” value in data set [1] stood at 87. Moreover, in data set [2], the “Binding Activity on ET Receptor (R. act.) ET8 *1” value came to 74. For the same molecule, the “Binding Activity on ET Receptor (R. act.) ET8 *2” value in data set [3] amounted to 180.
Regarding `CC(C)C[C@@H]1NC(=O)[C@@H](Cc2cccs2)NC(=O)[C@H](CC(=O)O)NC(=O)[C@H](Cc2c[nH]c3ccccc23)NC(=O)[C@@H](CC(=O)O)NC(=O)[C@@H](Cc2c[nH]c3ccccc23)NC1=O` [Example 50, Cyclo[--D--Asp--Trp--Asp--D--Thi--Leu--D--Trp--]] (cyclo(D[d2Thi]L[dW][dD]W)), the “Binding Activity on ET Receptor (R. act.) ETA” value in data set [1] amounted to 4. Besides, the “Binding Activity on ET Receptor (R. act.) ET8 *1” value in data set [2] is listed as 350. In addition, the “Binding Activity on ET Receptor (R. act.) ET8 *2” value in data set [3] is on record as 57.
As to `CC[C@H](C)[C@H]1NC(=O)[C@H](CC(=O)O)NC(=O)[C@H](Cc2c[nH]c3ccccc23)NC(=O)[C@@H](CC(=O)O)NC(=O)[C@@H](Cc2c[nH]c3ccccc23)NC(=O)[C@H](CC(C)C)NC1=O` [Example 51, Cyclo[--D--Asp--Trp--Asp--D--aIle--Leu--D--Trp--]] (cyclo(D[d(aIle)]L[dW][dD]W)), the “Binding Activity on ET Receptor (R. act.) ETA” value in data set [1] stood at 100. Besides, in data set [2], the “Binding Activity on ET Receptor (R. act.) ET8 *1” value was determined as 210. Further, the “Binding Activity on ET Receptor (R. act.) ET8 *2” value in data set [3] was found to be 290.
On to `CC(C)C[C@@H]1NC(=O)[C@@H](C(C)C)NC(=O)[C@H](CC(=O)O)NC(=O)[C@H](Cc2c[nH]c3ccccc23)NC(=O)[C@@H](CC(=O)O)NC(=O)[C@@H](Cc2c[nH]c3ccccc23)NC1=O` [Example 52, Cyclo[--D--Asp--Trp--Asp--D--Val--Leu--D--Trp--]] (cyclo(D[dV]L[dW][dD]W)), for which, in data set [1], the “Binding Activity on ET Receptor (R. act.) ETA” value is reported as 75. Moreover, the “Binding Activity on ET Receptor (R. act.) ET8 *1” value in data set [2] came to 240. Besides, the “Binding Activity on ET Receptor (R. act.) ET8 *2” value in data set [3] is 100.
Turning to `CC(C)C[C@H]1NC(=O)[C@H](CC(=O)O)NC(=O)[C@H](C)NC(=O)[C@@H](CC(=O)O)NC(=O)[C@@H](Cc2c[nH]c3ccccc23)NC(=O)[C@H](Cc2c[nH]c3ccccc23)NC1=O` [Example 58, Cyclo[--D--Asp--Ala--Asp--D--Leu--Trp--D--Trp--]] (cyclo(AD[dL]W[dW][dD])), in data set [1], the “Binding Activity on ET Receptor (R. act.) ETA” value was determined as 0.7. The “Binding Activity on ET Receptor (R. act.) ET8 *1” value in data set [2] amounted to 6.7. Besides, in data set [3], the “Binding Activity on ET Receptor (R. act.) ET8 *2” value is listed as 22.
Regarding `CC(C)C[C@@H]1NC(=O)[C@@H](Cc2ccccc2)NC(=O)[C@H](CC(=O)O)NC(=O)[C@H](Cc2c[nH]c3ccccc23)NC(=O)[C@@H](CC(=O)O)NC(=O)[C@@H](Cc2c[nH]c3ccccc23)NC1=O` [Example 60, Cyclo[--D--Asp--Trp--Asp--D--Phe--Leu--D--Trp--]] (cyclo(D[dF]L[dW][dD]W)), the “Binding Activity on ET Receptor (R. act.) ETA” value in data set [1] turned out to be 1. For the same molecule, in data set [2], the “Binding Activity on ET Receptor (R. act.) ET8 *1” value is on record as 210. Also, the “Binding Activity on ET Receptor (R. act.) ET8 *2” value in data set [3] stood at 44.
Turning to “cyclo[-D-Asp-Glu(Bzl)-Asp-D-Thg(2)-Leu-D-Trp-] [Example 89]”, in data set [1], the “Binding Activity on ET Receptor (R. act.) ETA” value amounted to 750. The “Binding Activity on ET Receptor (R. act.) ET8 *1” value in data set [2] was determined as 45. Moreover, the “Binding Activity on ET Receptor (R. act.) ET8 *2” value in data set [3] was 71.
Molecule cyclo[-D-Asp-Trp-Asp-D-tLeu-Leu-D-Trp-] returned a ring closure, yield after HPLC in data set [4] of 42.8%.
